From patent US20240109900A1, “AZABICYCLIC SHP2 INHIBITORS” (IRBM S.P.A., priority 2021, published 2024)
Like-named read-outs stand apart in the source and are kept apart here.

Tests used:
[1] = target: SHP-2 enzyme (Met1-Leu525) (Homo sapiens (Human), UniProt Q06124); experiment: SHP2 inhibition enzymatic assay; type: biochemical; details: read-out: SHP2wt-IC50
How it was run: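 SHP-2 (Met1-Leu525), 0.5 nM, activated with 500 nM IRS1 bis-phosphopeptide, preincubated 30 min with compounds in HEPES pH 7.2 buffer with 5 mM DTT. 75 μM DiFMUP added for 30 min at room temperature, stopped with bpV; fluorescence read. IC50 from four-parameter logistic fit of % inhibition.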

[2] = test system: ERK phosphorylation in KYSE-520 cells; experiment: Phospho-ERK cellular assay; type: cell-based; details: KYSE-520 cells, 2 h at 37° C., phospho-ERK1/2 (Thr202/Tyr204) TR-FRET, read-out: PERK IC50
How it was run: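 TR-FRET read-out of ERK1/2 Thr202/Tyr204 phosphorylation was taken after overnight antibody incubation at room temperature. Before that, KYSE-520 cells were treated 2 h at 37 °C with compound dilutions and lysed 30 min. Percent inhibition relative to vehicle and cell-free wells was fitted four-parametrically to give IC50.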

[3] = 0.5 nM SHP-2 activated by 500 nM IRS1 peptide, 75 μM DiFMUP substrate

Chain of SHP-2 enzyme (Met1-Leu525) (Q06124 1-525): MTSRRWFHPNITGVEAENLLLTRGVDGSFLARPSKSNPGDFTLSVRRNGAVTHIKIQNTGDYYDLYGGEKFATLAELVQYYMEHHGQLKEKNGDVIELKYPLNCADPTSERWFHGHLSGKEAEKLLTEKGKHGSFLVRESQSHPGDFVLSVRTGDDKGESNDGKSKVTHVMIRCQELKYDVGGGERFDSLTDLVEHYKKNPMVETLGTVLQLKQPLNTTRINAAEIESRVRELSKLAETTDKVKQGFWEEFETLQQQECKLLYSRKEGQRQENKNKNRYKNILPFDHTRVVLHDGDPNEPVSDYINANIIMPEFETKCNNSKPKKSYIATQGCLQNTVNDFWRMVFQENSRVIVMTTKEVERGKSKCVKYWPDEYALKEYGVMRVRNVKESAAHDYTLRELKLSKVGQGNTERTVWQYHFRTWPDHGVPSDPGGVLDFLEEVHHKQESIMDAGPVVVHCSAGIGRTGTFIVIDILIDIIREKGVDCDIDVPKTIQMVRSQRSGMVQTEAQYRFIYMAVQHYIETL

| SMILES | IC50 [1, 3] | IC50 ([2]; Homo sapiens, KYSE-520, 2 h) | IC50 [2] | IC50 [1] | IC50 ([2]; Homo sapiens) |
| --- | --- | --- | --- | --- | --- |
| NC[C@]1(c2ccccc2F)[C@@H]2CCN(c3cnc4c(-c5cc(C(N)=O)ccc5Cl)n[nH]c4n3)C[C@@H]21 [Example 281, 3-(6-((1S,6R,7R)-7-(aminomethyl)-7-(2-fluorophenyl)-3-azabicyclo[4.1.0]heptan-3-yl)-1H-pyrazolo[3,4-b]pyrazin-3-yl)-4-chlorobenzamide] | < 500 nM | > 5000 nM | – | – | – |
| Cc1csc([C@@]2(CN)[C@@H]3CN(c4cnc5c(-c6ccc7nc(C)sc7c6Cl)n[nH]c5n4)C[C@@H]32)n1 [Example 461] | < 500 nM | – | < 1000 nM | – | – |
| COc1ncccc1-c1n[nH]c2nc(N3CCC4C(C3)C4(CN)c3cc(C)on3)cnc12 (centres unmarked) [Example 28, (3-(3-(2-methoxypyridin-3-yl)-1H-pyrazolo[3,4-b]pyrazin-6-yl)-7-(5-methylisoxazol-3-yl)-3-azabicyclo[4.1.0]heptan-7-yl)methanamine] | < 500 nM | > 5000 nM | – | – | – |
| Cc1csc(C2(CN)[C@@H]3CN(c4cnc5c(-c6cccn7nccc67)n[nH]c5n4)C[C@@H]32)n1 (some centres unmarked) [Example 482] | < 500 nM | – | < 1000 nM | – | – |
| NCC1(c2ncccn2)C2CCN(c3cnc4c(-c5cccc(Cl)c5Cl)n[nH]c4n3)CC21 (centres unmarked) [Example 83, (3-(3-(2,3-dichlorophenyl)-1H-pyrazolo[3,4-b]pyrazin-6-yl)-7-(pyrimidin-2-yl)-3-azabicyclo [4.1.0]heptan-7-yl)methanamine] | < 500 nM | < 1000 nM | – | – | – |
| NC[C@]1(c2ccccc2F)[C@@H]2CCN(c3cnc4c(-c5ccc(CO)c6ncccc56)n[nH]c4n3)C[C@@H]21 [Example 159, (5-(6-((1S,6R,7R)-7-(aminomethyl)-7-(2-fluorophenyl)-3-azabicyclo[4.1.0]heptan-3-yl)-1H-pyrazolo[3,4-b]pyrazin-3-yl)quinolin-8-yl)methanol] | < 500 nM | < 1000 nM | – | – | – |
| COc1ccc(-c2n[nH]c3nc(N4CC[C@@H]5[C@H](C4)[C@@]5(CN)c4ccccc4F)cnc23)cc1F [Example 399] | < 500 nM | – | < 1000 nM | – | – |
| Cc1cc(C2(CN)C3CCN(c4cnc5c(-c6ccc7nn(C)cc7c6Cl)n[nH]c5n4)CC32)no1 (centres unmarked) [Example 24, (3-(3-(4-chloro-2-methyl-2H-indazol-5-yl)-1H-pyrazolo[3,4-b]pyrazin-6-yl)-7-(5-methylisoxazol-3-yl)-3-azabicyclo[4.1.0]heptan-7-yl)methanamine] | < 500 nM | < 1000 nM | – | – | – |
| Cc1csc(C2(CN)C3CCN(c4ncc(Sc5ccnc(N)c5Cl)c5nccn45)CC32)n1 (centres unmarked) [Example 76, 4-((5-(7-(aminomethyl)-7-(4-methylthiazol-2-yl)-3-azabicyclo[4.1.0]heptan-3-yl)imidazo[1,2-c]pyrimidin-8-yl)thio)-3-chloropyridin-2-amine] | – | – | – | < 500 nM | > 5000 nM |
| NC[C@]1(c2ccccc2)[C@@H]2CN(c3cnc4c(-c5ccc6nccnc6c5Cl)n[nH]c4n3)C[C@@H]21 [Example 456, ((1R,5S,6s)-3-(3-(5-chloroquinoxalin-6-yl)-1H-pyrazolo[3,4-b]pyrazin-6-yl)-6-phenyl-3-azabicyclo[3.1.0]hexan-6-yl)methanamine] | < 500 nM | < 1000 nM | – | – | – |
| Cn1cc2c(Cl)c(-c3n[nH]c4nc(N5CCC6C(C5)C6(CN)c5ccccc5)cnc34)ccc2n1 (centres unmarked) [Example 81, (3-(3-(4-chloro-2-methyl-2H-indazol-5-yl)-1H-pyrazolo[3,4-b]pyrazin-6-yl)-7-phenyl-3-azabicyclo[4.1.0]heptan-7-yl)methanamine] | < 500 nM | < 1000 nM | – | – | – |
| Cc1ccc2c(-c3n[nH]c4nc(N5CC[C@@H]6[C@H](C5)[C@@]6(CN)c5ccccc5F)cnc34)ccc(F)c2n1 [Example 226, ((1S,6R,7R)-3-(3-(8-fluoro-2-methylquinolin-5-yl)-1H-pyrazolo[3,4-b]pyrazin-6-yl)-7-(2-fluorophenyl)-3-azabicyclo[4.1.0]heptan-7-yl)methanamine] | < 500 nM | < 1000 nM | – | – | – |
| Cn1ccc(Oc2ccc(-c3n[nH]c4nc(N5CC[C@@H]6[C@H](C5)[C@@]6(CN)c5ccccc5F)cnc34)c(Cl)c2Cl)n1 [Example 215, ((1S,6R,7R)-3-(3-(2,3-dichloro-4-((1-methyl-1H-pyrazol-3-yl)oxy)phenyl)-1H-pyrazolo[3,4-b]pyrazin-6-yl)-7-(2-fluorophenyl)-3-azabicyclo[4.1.0]heptan-7-yl)methanamine] | < 500 nM | < 1000 nM | – | – | – |
| NC[C@]1(c2ccccc2F)[C@@H]2CCN(c3cnc4nc(-c5ccnc(-n6cccn6)c5)ccc4n3)C[C@@H]21 [Example 530, ((1S,6R,7R)-3-(6-(2-(1H-pyrazol-1-yl)pyridin-4-yl)pyrido[2,3-b]pyrazin-2-yl)-7-(2-fluorophenyl)-3-azabicyclo[4.1.0]heptan-7-yl)methanamine] | < 500 nM | > 5000 nM | – | – | – |
| Cc1cc(C2(CN)C3CCN(c4cnc5c(-c6ccc7scnc7c6)n[nH]c5n4)CC32)no1 (centres unmarked) [Example 20, (3-(3-(benzo[d]thiazol-5-yl)-1H-pyrazolo[3,4-b]pyrazin-6-yl)-7-(5-methylisoxazol-3-yl)-3-azabicyclo[4.1.0]heptan-7-yl)methanamine] | < 500 nM | < 1000 nM | – | – | – |
| NC[C@]1(c2ccccc2F)[C@@H]2CCN(c3cnc4c(-c5ccc(O)c(F)c5)n[nH]c4n3)C[C@@H]21 [Example 331, 4-(6-((1S,6R,7R)-7-(aminomethyl)-7-(2-fluorophenyl)-3-azabicyclo[4.1.0]heptan-3-yl)-1H-pyrazolo[3,4-b]pyrazin-3-yl)-2-fluorophenol] | < 500 nM | < 1000 nM | – | – | – |
| Cc1csc(C2(CN)C3CCN(c4cnc(Sc5cccnc5C(F)(F)F)c(N)n4)CC32)n1 (centres unmarked) [Example 73, 6-(7-(aminomethyl)-7-(4-methylthiazol-2-yl)-3-azabicyclo[4.1.0]heptan-3-yl)-3-((2-(trifluoromethyl)pyridin-3-yl)thio)pyrazin-2-amine] | < 500 nM | 1000 to 5000 nM | – | – | – |
| CS(=O)(=O)NC(=O)c1ccc(-c2n[nH]c3nc(N4CC[C@@H]5[C@H](C4)[C@@]5(CN)c4ccccc4F)cnc23)c2cccnc12 [Example 282, 5-(6-((1S,6R,7R)-7-(aminomethyl)-7-(2-fluorophenyl)-3-azabicyclo[4.1.0]heptan-3-yl)-1H-pyrazolo[3,4-b]pyrazin-3-yl)-N-(methylsulfonyl)quinoline-8-carboxamide] | < 500 nM | < 1000 nM | – | – | – |
| NC[C@]1(c2ccccc2F)[C@@H]2CCN(c3cnc4c(-c5ccc(C(N)=O)cc5Cl)n[nH]c4n3)C[C@@H]21 [Example 276, 4-(6-((1S,6R,7R)-7-(aminomethyl)-7-(2-fluorophenyl)-3-azabicyclo[4.1.0]heptan-3-yl)-1H-pyrazolo[3,4-b]pyrazin-3-yl)-3-chlorobenzamide] | < 500 nM | < 1000 nM | – | – | – |
| COCc1cc(C2(CN)C3CCN(c4cnc5c(-c6ccc7nn(C)cc7c6Cl)n[nH]c5n4)CC32)no1 (centres unmarked) [Example 47, (3-(3-(4-chloro-2-methyl-2H-indazol-5-yl)-1H-pyrazolo[3,4-b]pyrazin-6-yl)-7-(5-(methoxymethyl)isoxazol-3-yl)-3-azabicyclo[4.1.0]heptan-7-yl)methanamine] | < 500 nM | < 1000 nM | – | – | – |
| Cc1csc([C@@]2(CN)[C@@H]3CN(c4cnc5c(-c6cccc(Cl)c6Cl)n[nH]c5n4)CC[C@@H]32)n1 [Example 437, ((1R,6S,7R)-3-(3-(2,3-dichlorophenyl)-1H-pyrazolo[3,4-b]pyrazin-6-yl)-7-(4-methylthiazol-2-yl)-3-azabicyclo[4.1.0]heptan-7-yl)methanamine] | < 500 nM | 1000 to 5000 nM | – | – | – |
| NC[C@]1(c2ccccc2F)[C@@H]2CCN(c3cnc4c(-c5cccc(-c6cnccn6)c5Cl)n[nH]c4n3)C[C@@H]21 [Example 158, ((1S,6R,7R)-3-(3-(2-chloro-3-(pyrazin-2-yl)phenyl)-1H-pyrazolo[3,4-b]pyrazin-6-yl)-7-(2-fluorophenyl)-3-azabicyclo[4.1.0]heptan-7-yl)methanamine] | < 500 nM | < 1000 nM | – | – | – |
| CNC[C@]1(c2nc(C)cs2)[C@@H]2CN(c3cnc4c(-c5ccc6nn(C)cc6c5Cl)n[nH]c4n3)C[C@@H]21 [Example 484, 1-((1R,5S,6r)-3-(3-(4-chloro-2-methyl-2H-indazol-5-yl)-1H-pyrazolo[3,4-b]pyrazin-6-yl)-6-(4-methylthiazol-2-yl)-3-azabicyclo[3.1.0]hexan-6-yl)-N-methylmethanamine] | < 500 nM | < 1000 nM | – | – | – |
| NC[C@]1(c2ccccc2F)[C@@H]2CCN(c3cnc(Sc4ccc(C(N)=O)cc4Cl)cn3)C[C@@H]21 [Example 421, 4-((5-((1S,6R,7R)-7-(aminomethyl)-7-(2-fluorophenyl)-3-azabicyclo[4.1.0]heptan-3-yl)pyrazin-2-yl)thio)-3-chlorobenzamide] | < 500 nM | < 1000 nM | – | – | – |
| Cc1nccc(-c2ccc3nc(N4CC[C@@H]5[C@H](C4)[C@@]5(CN)c4ccccc4F)cnc3n2)c1F [Example 529] | < 500 nM | < 1000 nM | – | – | – |
